Laboratory results taken from patent US11591355B2 (Peloton Therapeutics, Inc., priority 2017, dated 2023).

How the values were obtained:
Human CD73 = target: T1, Human CD73 (Homo sapiens, UniProt P21589); assay: CD73 Enzyme Assay; type: biochemical; conditions: 0.25 nM hCD73, 25 μM AMP, kinetic read at 360 nm; read-out: CD73 Enzyme Assay IC50
T1 construct: purchased R&D Systems; host or cells: CHO cells
T1 sequence (P21589 27-549): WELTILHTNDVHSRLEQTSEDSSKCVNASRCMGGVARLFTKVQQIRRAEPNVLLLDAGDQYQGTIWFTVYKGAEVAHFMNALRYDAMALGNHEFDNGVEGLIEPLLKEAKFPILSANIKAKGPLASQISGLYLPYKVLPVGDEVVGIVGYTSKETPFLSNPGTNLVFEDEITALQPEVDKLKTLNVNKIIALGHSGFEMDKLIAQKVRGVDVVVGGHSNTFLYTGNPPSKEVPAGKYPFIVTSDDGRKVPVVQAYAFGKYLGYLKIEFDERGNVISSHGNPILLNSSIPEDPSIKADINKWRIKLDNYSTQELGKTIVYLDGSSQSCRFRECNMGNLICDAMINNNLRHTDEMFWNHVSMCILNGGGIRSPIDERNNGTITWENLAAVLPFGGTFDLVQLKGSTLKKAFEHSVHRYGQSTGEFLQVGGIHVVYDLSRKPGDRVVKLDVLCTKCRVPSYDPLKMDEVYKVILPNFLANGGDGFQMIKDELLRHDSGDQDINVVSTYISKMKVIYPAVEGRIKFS

[1] = target: T2, CD73 on U138 human neuroglioma cells (Homo sapiens, UniProt P21589); assay: CD73 Cell-Based Assay; conditions: U138 cells, AMP substrate, 2 hours at 37° C., inorganic phosphate by malachite green
T2 construct: U138 cells were obtained from ATCC and cultured in DMEM with 10% FBS; host or cells: U138 human neuroglioma cells
T2 sequence (P21589 27-549): T1 sequence (P21589 27-549)
Procedure, shortened: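 Whole U138 cells washed free of phosphate were incubated with 200 μM AMP (mixture concentration before equal-volume addition) plus compound in HEPES-buffered saline, pH 7.4, for 2 h at 37 °C, 5% CO2. Adenosine-forming activity read as inorganic phosphate released into supernatant by malachite green.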

O=P(O)(O)COC[C@H]1O[C@@H](n2ncc3c(N4CC5CCCC5C4)nc(Cl)nc32)[C@H](O)[C@@H]1O (stereo partly drawn) [Compound 274, [(2R,3S,4R,5R)-5-[4-(3,3a,4,5,6,6a-hexa-hydro-1H-cyclopenta-[c]pyrrol-2-yl)-6-chloro-pyrazolo[3,4-d]-pyrimidin-1-yl]-3,4-dihydroxy-tetrahydro-furan-2-yl]methoxy-methylphosphonic acid]
IC50 (Human CD73): < 10 nM
IC50 [1]: < 10 nM

O=P(O)(O)COC[C@H]1O[C@@H](n2ncc3c(N4CCC(F)(F)C4)nc(Cl)nc32)[C@H](O)[C@@H]1O [Compound 275, [(2R,3S,4R,5R)-5-[6-chloro-4-(3,3-difluoro-pyrrolidin-1-yl)-pyrazolo[3,4-d]-pyrimidin-1-yl]-3,4-dihydroxy-tetrahydro-furan-2-yl]methoxy-methylphosphonic acid]
IC50 (Human CD73): < 10 nM
IC50 [1]: < 10 nM

O=P(O)(O)COC[C@H]1O[C@@H](n2ccc3c(NC4CCCC4)nc(C#CC4(O)CC4)nc32)[C@H](O)[C@@H]1O [Compound 276, ((((2R,3S,4R,5R)-5-(4-(cyclopentylamino)-2-((1-hydroxycyclopropyl)ethynyl)-7H-pyrrolo[2,3-d]pyrimidin-7-yl)-3,4-dihydroxytetrahydrofuran-2-yl)methoxy)methyl)phosphonic acid]
IC50 (Human CD73): < 10 nM
IC50 [1]: < 10 nM

O=P(O)(O)COC[C@H]1O[C@@H](n2ncc3c(NC4CC5CC5C4)nc(Cl)nc32)[C@H](O)[C@@H]1O (stereo partly drawn) [Compound 279, [(2R,3S,4R,5R)-5-[4-(3-bicyclo[3.1.0]hexa-nylamino)-6-chloro-pyrazolo[3,4-d]-pyrimidin-1-yl]-3,4-dihydroxy-tetrahydro-furan-2-yl]methoxy-methylphosphonic acid]
IC50 (Human CD73): < 10 nM
IC50 [1]: < 10 nM

O=P(O)(O)COC[C@H]1O[C@@H](n2ncc3c(N4CC5CC5C4)nc(Cl)nc32)[C@H](O)[C@@H]1O (stereo partly drawn) [Compound 280, [(2R,3S,4R,5R)-5-[4-(3-azabicyclo[3.1.0]-hexan-3-yl)-6-chloro-pyrazolo[3,4-d]-pyrimidin-1-yl]-3,4-dihydroxy-tetrahydro-furan-2-yl]methoxy-methylphosphonic acid]
IC50 (Human CD73): < 10 nM
IC50 [1]: < 10 nM

O=P(O)(O)COC[C@H]1O[C@@H](n2ccc3c(N4CCC[C@@H]4CO)nc(Cl)nc32)[C@H](O)[C@@H]1O [Compound 283, [(2R,3S,4R,5R)-5-[2-chloro-4-[(2R)-2-(hydroxymethyl)-pyrrolidin-1-yl]-pyrrolo[2,3-d]-pyrimidin-7-yl]-3,4-dihydroxy-tetrahydro-furan-2-yl]methoxy-methylphosphonic acid]
IC50 (Human CD73): 10 to 100 nM
IC50 [1]: 100 to 1000 nM

C[C@H]1CCCN1c1nc(Cl)nc2c1ccn2[C@@H]1O[C@H](COCP(=O)(O)O)[C@@H](O)[C@H]1O [Compound 284, [(2R,3S,4R,5R)-5-[2-chloro-4-[(2S)-2-methylpyrrolidin-1-yl]pyrrolo[2,3-d]-pyrimidin-7-yl]-3,4-dihydroxy-tetrahydro-furan-2-yl]methoxy-methylphosphonic acid]
IC50 (Human CD73): 10 to 100 nM
IC50 [1]: 10 to 100 nM

O=P(O)(O)COC[C@H]1O[C@@H](c2c[nH]c3c(N4CC5CCCC5C4)nc(Cl)nc23)[C@H](O)[C@@H]1O (stereo partly drawn) [Compound 285, ((((2R,3S,4R,5S)-5-(2-chloro-4-(hexahydrocyclopenta[c]pyrrol-2 (1H)-yl)-5H-pyrrolo[3,2-d]pyrimidin-7-yl)-3,4-dihydroxytetrahydrofuran-2-yl)methoxy)methyl)phosphonic acid]
IC50 (Human CD73): < 10 nM
IC50 [1]: < 10 nM

O=P(O)(O)CS(=O)(=O)C[C@H]1O[C@@H](n2ncc3c(NC4CCCC4)nc(Cl)nc32)[C@H](O)[C@@H]1O [Compound 287, [(2S,3S,4R,5R)-5-[6-chloro-4-(cyclopentyl-amino)pyrazolo[3,4-d]-pyrimidin-1-yl]-3,4-dihydroxy-tetrahydro-furan-2-yl]methyl-sulfonylmethylphos-phonic acid]
IC50 (Human CD73): < 10 nM
IC50 [1]: < 10 nM

N#Cc1nc(N2CC3CC3C2)c2cnn([C@@H]3O[C@H](CS(=O)(=O)CP(=O)(O)O)[C@@H](O)[C@H]3O)c2n1 (stereo partly drawn) [Compound 288, [(2S,3S,4R,5R)-5-[4-(3-azabicyclo[3.1.0]-hexan-3-yl)-6-cyano-pyrazolo[3,4-d]-pyrimidin-1-yl]-3,4-dihydroxy-tetrahydro-furan-2-yl]methyl-sulfonylmethylphos-phonic acid]
IC50 (Human CD73): 10 to 100 nM
IC50 [1]: 10 to 100 nM

O=P(O)(O)CS(=O)(=O)C[C@H]1O[C@@H](n2ccc3c(NC4CCCC4)nc(C(F)F)nc32)[C@H](O)[C@@H]1O [Compound 289, [(2S,3S,4R,5R)-5-[4-(cyclopentylamino)-2-(difluoromethyl)-pyrrolo[2,3-d]-pyrimidin-7-yl]-3,4-dihydroxy-tetrahydro-furan-2-yl]methyl-sulfonylmethylphos-phonic acid]
IC50 (Human CD73): < 10 nM
IC50 [1]: < 10 nM

C[C@@H](Nc1nc(C#N)nc2c1cnn2[C@@H]1O[C@H](CS(=O)(=O)CP(=O)(O)O)[C@@H](O)[C@H]1O)c1ccc(F)cc1 [Compound 291, [(2S,3S,4R,5R)-5-[6-cyano-4-[[(1R)-1-(4-fluorophenyl)ethyl]-amino]pyrazolo[3,4-d]-pyrimidin-1-yl]-3,4-dihydroxy-tetrahydro-furan-2-yl]methyl-sulfonylmethylphos-phonic acid]
IC50 (Human CD73): < 10 nM
IC50 [1]: < 10 nM

N#Cc1nc(NC2CC(F)(F)C2)c2cnn([C@@H]3O[C@H](CS(=O)(=O)CP(=O)(O)O)[C@@H](O)[C@H]3O)c2n1 [Compound 292, [(2S,3S,4R,5R)-5-[6-cyano-4-[(3,3-difluoro-difluorocyclobutyl)-amino]pyrazolo[3,4-d]-pyrimidin-1-yl]-3,4-dihydroxy-tetrahydro-furan-2-yl]methyl-sulfonylmethylphos-phonic acid]
IC50 (Human CD73): < 10 nM
IC50 [1]: < 10 nM

N#Cc1nc(N2CCC(F)(F)C2)c2cnn([C@@H]3O[C@H](CS(=O)(=O)CP(=O)(O)O)[C@@H](O)[C@H]3O)c2n1 [Compound 293, [(2S,3S,4R,5R)-5-[6-cyano-4-(3,3-difluoro-pyrrolidin-1-yl)-pyrazolo[3,4-d]-pyrimidin-1-yl]-3,4-dihydroxy-tetrahydro-furan-2-yl]methyl-sulfonylmethylphos-phonic acid]
IC50 (Human CD73): 10 to 100 nM
IC50 [1]: 10 to 100 nM

O=P(O)(O)COC[C@H]1O[C@H](c2c[nH]c3c(N4CC5CCCC5C4)nc(Cl)nc23)[C@H](O)[C@@H]1O (stereo partly drawn) [Compound 294, [(2R,3S,4R,5R)-5-[4-(3,3a,4,5,6,6a-hexa-hydro-1H-cyclopenta-[c]pyrrol-2-yl)-2-chloro-5H-pyrrolo[3,2-d]pyrimidin-7-yl]-3,4-dihydroxy-tetrahydro-furan-2-yl]methoxy-methylphosphonic acid]
IC50 (Human CD73): 10 to 100 nM
IC50 [1]: < 10 nM

O=P(O)(O)COC[C@H]1O[C@@H](c2csc3c(N4CC5CCCC5C4)nc(Cl)nc23)[C@H](O)[C@@H]1O (stereo partly drawn) [Compound 295, [(2R,3S,4R,5S)-5-[4-(3,3a,4,5,6,6a-hexa-hydro-1H-cyclopenta-[c]pyrrol-2-yl)-2-chloro-thieno[3,2-d]-pyrimidin-7-yl]-3,4-dihydroxy-tetrahydro-furan-2-yl]methoxy-methylphosphonic acid]
IC50 (Human CD73): < 10 nM
IC50 [1]: < 10 nM

N#Cc1nc(NC2CCCC2)c2cnn([C@@H]3O[C@H](CS(=O)(=O)CP(=O)(O)O)[C@@H](O)[C@H]3O)c2n1 [Compound 296, (((((2S,3S,4R,5R)-5-(6-cyano-4-(cyclopentylamino)-1H-pyrazolo[3,4-d]pyrimidin-1-yl)-3,4-dihydroxytetrahydrofuran-2-yl)methyl)sulfonyl)methyl)phosphonic acid]
IC50 (Human CD73): < 10 nM
IC50 [1]: < 10 nM

O=P(O)(O)COC[C@H]1O[C@@H](c2c(Br)sc3c(N4CC5CCCC5C4)nc(Cl)nc23)[C@H](O)[C@@H]1O (stereo partly drawn) [Compound 297, [(2R,3S,4R,5S)-5-[4-(3,3a,4,5,6,6a-hexa-hydro-1H-cyclopenta-[c]pyrrol-2-yl)-6-bromo-2-chloro-thieno[3,2-d]-pyrimidin-7-yl]-3,4-dihydroxy-tetrahydro-furan-2-yl]methoxy-methylphosphonic acid]
IC50 (Human CD73): 100 to 1000 nM
IC50 [1]: 100 to 1000 nM

O=P(O)(O)COC[C@H]1O[C@@H](c2ccc3c(NC4CCCC4)nc(Cl)nn23)[C@H](O)[C@@H]1O [Compound 298, [(2R,3S,4R,5S)-5-[2-chloro-4-(cyclopentyl-amino)pyrrolo[2,1-f]-[1,2,4]triazin-7-yl]-3,4-dihydroxy-tetrahydro-furan-2-yl]methoxy-methylphosphonic acid]
IC50 (Human CD73): < 10 nM
IC50 [1]: < 10 nM

N#Cc1nc(N2CC3CCCC3C2)c2cnn([C@@H]3O[C@H](CS(=O)(=O)CP(=O)(O)O)[C@@H](O)[C@H]3O)c2n1 (stereo partly drawn) [Compound 299, [(2S,3S,4R,5R)-5-[4-(3,3a,4,5,6,6a-hexa-hydro-1H-cyclopenta-[c]pyrrol-2-yl)-6-cyano-pyrazolo[3,4-d]-pyrimidin-1-yl]-3,4-dihydroxy-tetrahydro-furan-2-yl]methyl-sulfonylmethylphos-phonic acid]
IC50 (Human CD73): < 10 nM
IC50 [1]: < 10 nM
